The values below come from article PMC9667546, “Selective Inhibition of Bruton’s Tyrosine Kinase by a Designed Covalent Ligand Leads to Potent Therapeutic Efficacy in Blood Cancers Relative to Clinically Used Inhibitors” (ACS Pharmacology & Translational Science, 2022).

Assay [1] concerns the target T1, BTK (Homo sapiens, UniProt Q06187). Also on record: purchased Promega Corporation V2941. To be noted: first value of 5.8/28 in Table S3; ref 23 (SI ref 20); read-out: IC50 (potency against BTK), earlier value of JS25; cited from earlier work.
A further assay has as its system MOLM-13 cells (AML). Description: Cell viability assay (CellTiter-Glo), MOLM-13. In kind it is cell-based. To be noted: Homo sapiens, 72 h, n = 3. The method, then:
(§1) All cell lines were purchased from ATCC, except for DoHH-2 cells that were obtained from DSMZ. Cells were cultivated in complete DMEM supplemented with 10% (vol/vol) FBS (Gibco) and 1% of penicillin/streptomycin (Gibco). The cells were grown in a humidified atmosphere of 5% CO2 at 37°C, with the medium changed every other day.
(§2) Cells were inoculated at a density of 5000 cells/well. Serially diluted compounds (starting at 50 μM) were added 24 h later. The assay was performed in triplicates. After 72 h of incubation, cellular viability was assessed by CellTiter-Glo (Promega) according to the manufacturer’s instructions. The values were normalized with the vehicle (DMSO), and the IC50 was calculated using GraphPad Prism 8.
(In general: ATP-based viability assays read luminescence as a measure of living cells.)

For the next assay, the system named is WA-C3CD5+ cells (CLL). Description: Cell viability assay (CellTiter-Glo), WA-C3CD5+. It counts as cell-based. The following applies: 72 h, n = 3.
In another assay the test system is Raji cells (BL). The assay can be described thus: Cell viability assay (CellTiter-Glo), Raji. It counts as cell-based. The following applies: Homo sapiens, 72 h, n = 3. The procedure:
as §1, §2

The target in assay [2] is T1, BTK. Description: NanoBRET in-cell target engagement, BTK. It counts as binding. Also on record: purchased Promega Corporation V2941. The procedure: In-cell target engagement was performed at Reaction Biology Corporation, using NanoBRET technology. Very briefly, HEK296T cells were transfected and treated in duplicate with JS25 for 1 h of incubation. The compound was diluted 10 times with 3-fold dilution, starting at 1 μM. Curve fits were performed only when the % NanoBret signal at the highest concentration of compounds was less than 55%. The IC50 values were determined using GraphPad Prism 8 ([…]).
(In BRET a luciferase serves as donor, and the signal depends on an acceptor being close.)

Another assay deals with HBEC-5i cells. The assay can be described thus: Cell viability assay (CellTiter-Glo), HBEC-5i. It counts as cell-based. To be noted: Homo sapiens, 72 h, n = 3. The method, then:
as §2
Human cerebral microvascular endothelial cells (HBEC-5i) were cultured as a monolayer on attachment factor protein solution (AF)-coated T-flasks (Gibco), using DMEM/F12 medium (Gibco), supplemented with 10% FBS, 1% penicillin/streptomycin, and 40.0 μg/mL endothelial cell growth supplement (ECGS, Sigma), according to the manufacturer’s instructions. The capacity of the compounds to cross the brain–blood barrier (BBB) was evaluated using an in vitro HBEC-5i cell model, as previously described.[29] Samples from the apical and basolateral sides were collected, and fluorescence intensity was measured using a Varioskan LUX multimode microplate reader. The retention was considered the difference between the initial fluorescence of compounds (100%) and the aggregated apical and basolateral fluorescence.

Broadly, the IC50 is the concentration that gives 50% inhibition.

Like-named read-outs stand apart in the source and are kept apart here.

T1 sequence (Q06187 whole entry): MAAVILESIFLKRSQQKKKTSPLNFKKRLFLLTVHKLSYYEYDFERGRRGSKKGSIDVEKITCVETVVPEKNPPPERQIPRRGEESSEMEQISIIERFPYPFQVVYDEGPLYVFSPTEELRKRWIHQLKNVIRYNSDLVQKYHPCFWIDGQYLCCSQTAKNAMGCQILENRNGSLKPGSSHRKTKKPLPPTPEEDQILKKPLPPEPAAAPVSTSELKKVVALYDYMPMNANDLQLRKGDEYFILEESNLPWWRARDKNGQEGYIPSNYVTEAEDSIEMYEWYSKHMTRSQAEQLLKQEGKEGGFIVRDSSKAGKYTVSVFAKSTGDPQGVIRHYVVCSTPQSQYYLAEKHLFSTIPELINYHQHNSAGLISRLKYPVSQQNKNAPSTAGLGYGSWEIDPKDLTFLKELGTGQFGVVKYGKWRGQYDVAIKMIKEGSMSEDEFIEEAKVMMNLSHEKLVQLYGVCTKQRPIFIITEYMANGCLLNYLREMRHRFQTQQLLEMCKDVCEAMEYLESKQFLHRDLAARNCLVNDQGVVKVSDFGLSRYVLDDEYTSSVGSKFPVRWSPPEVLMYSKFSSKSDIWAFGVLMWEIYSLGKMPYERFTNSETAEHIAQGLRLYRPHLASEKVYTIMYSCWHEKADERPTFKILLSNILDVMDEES

As for `C=CC(=O)Nc1cc(C)cc(-n2c(=O)ccc3cnc4ccc(-c5ccc(NS(C)(=O)=O)cc5)cc4c32)c1` [JS25], the IC50 is 5.8 nM on BTK [1]; ~510 nM in the assay with MOLM-13 cells (AML); 3500 nM in the assay with WA-C3CD5+ cells (CLL); 2300 nM in the assay with Raji cells (BL); 2.85e-08 M on BTK [2] (HEK296T cells, 1 h incubation, average of duplicates, read-out: IC50 (M), BTK); 2.8e-08 M at BTK [2] (NanoBRET value as given in text and Table S3, read-out: IC50, BTK). Besides, in the assay with HBEC-5i cells, it took 23400 ± 980 nM to reach half-maximal inhibition (IC50). The “selectivity (kinase/BTK), BTK” value on BTK [2] (IC50 kinase/IC50 BTK) is 1.
